Patent publication US20120122965A1, “COMPOSITIONS FOR SKIN PROTECTION AND IMPROVEMENT OF SKIN DISEASES CONTAINING THE DIBENZO-P-DIOXINE DERIVATIVES” (priority 2007, published 2012)

Columns and labels:
[1] = tested on: B-16 cells (mouse melanoma, ATCC CRL 6323); assay: Inhibition of melanin synthesis; format: cell-based; conditions: 50 μg/ml, 3 days, vs solvent control; for inhibition at 50 µg/mL: Mus musculus, B16, 72 h, read-out: Inhibitory effect on melanin synthesis (%)
Description: Catechin, rasveratrol, isoflavone, kojic acid, ascorbic acid, and Moriradicis cortex extracts were used as positive controls.
The B-16 cells (mouse melanoma, ATCC CRL 6323) were maintained in the DMEM medium supplemented 4.5 g/E of glucose, 10% serum, and 1% antibiotic at 37° C. for 24 hours. After the cell was incubated with 0.05% trypsin containing 0.02% EDTA, the cell was plated and incubated for 48 hours. The cells were treated with 50 μg/ml of compositions 1 to 18, or positive controls and incubated at 37° C. for 3 days. The cells were then added with 1 me of lysis buffer (phosphate buffer solution, 0.02% EDTA, 0.05% trypsin) and centrifuged for 5 min After the cells were treated with 5% trichloro acetate (TCA), the farmed melanin was separated and dissolved in 1N NaOH. The absorbance was measured at 475 nm using spectrophotometer. Concentration of melanin was determined by the standard curve of synthetic melanin (SIGMA CO. USA). The cell treated with the same amount of solvent was used as a negative control. The inhibitory effects of each composition on melanin synthesis were determined by following Equation.
{1−(M/M0)}×100 [Equation]
M: amount of melanin of test group or positive controls
M0: amount of melanin of negative control

[2] = tested on: NB1RGB cells (normal human fibroblast cell line from skin); conditions: concentration that reaches 50% of apoptosis, 1 hour incubation
Description: (§1) The cytotoxicity of the compositions to the normal skin cell was assessed using the NHEK (F) cells (normal human epidermal keratinocytes of neonatal foreskin cell) and the NB1RGB cells (normal human fibroblast cell line from skin). NHEK (F) and NB1RGB cells, which are main components of the epidermis and Bemis in normal human skin, produce collagen and elastin and provide skin elasticity.
(§2) The mixture of PMS/WST-1 (1-methoxy-5-methylphenazinium methyl sulfate/2-(4-indophenyl)-3-(4-nitrophenyl)-5-(2,4-disulfo phenyl)-2H-tetrazolium monosodium salt) was added to the medium and incubated for 1 hour to generate soluble formosan, and then the absorbance was measured at 415 nm using spectrophotometer. The cells treated with solvent without the compositions were used as a negative control, whereas the cells treated with 1% (w/v) SDS solution were used as a positive control (100% cell apoptosis).
(§3) apoptosis(%)=(A0−A/A0−As)×100 [Equation]
(§4) A0=absorbance of the cell that was not treated with the composition
(§5) A=absorbance of the cell that was treated with the composition […]
(§6) As=absorbance of the cell that was treated with 1% (w/v) SDS (positive control group)

[3] = tested on: NHEK (F) cells (normal human epidermal keratinocytes of neonatal foreskin cell); conditions: concentration that reaches 50% of apoptosis, 1 hour incubation
Description: as §1, §2, §3, §4, §5, §6

[4] = tested on: rat basophilic leukemia cell (RBL-2H3); assay: Inhibition on histamine release (DNP-BSA stimulated); format: cell-based; conditions: 50 μg/ml, RBL-2H3 cells, vs negative control
Description: In order to assess the anti-inflammation and anti-allergic activities of the compositions in the present invention, the inhibitory effects of the compositions on histamine synthesis, which closely related with inflammation including allergy, were investigated. The inhibitory effects of the compositions on histamine synthesis were assessed using the rat basophilic leukemia cell (RBL-2H3) according to the Kawasaki's method. After the cell (1×10^5 cells/well) was cultured in RPMI 1640 medium supplemented with 2% FBS (fetal bovine serum) and rat anti-DNP (dinitrophenol) IgE at 37° C. for 120 min, the cell was washed with the HPEPS buffer to remove the residual IgE. The cells was incubated in either absence (negative control) or presence (test group) of the com[…]. for 10 min. The cell was then treated with DNP-BSA (Dinitrophenol-conjugated Bovine serum albumin), as a histamine release antigen, for 1 hour at 37° C. After the reaction was stopped by adding the HEPES buffer solution, the supernatant was collected and treated with 20 μl of the perchloric acid and centrifuged. The histamine release in the supernatant was measured using the HPLC. The % inhibitions on histamine release of test group were calculated by following Equation compared with negative control. […] H: histamine release of test group H0: histamine release of negative control

elastase = assay: Inhibition of elastase; format: biochemical; conditions: 50 μg/ml, 10 nM elastase, 25° C., 10 min
Description: Catechin, rasveratrol, isoflavone, lactokine were used for positive controls. […] The cell treated with the same amount of solvent was used as a negative control. The inhibitory effects of each sample on elastase were determined by following Equation. The results are described in Table 3. {1−(E/E0)}×100 [Equation] E: The absorbance of test group or positive control E0: The absorbance of negative control

[5] = tested on: pro-inflammatory cytokines (IL-1α, IL-1β, IL-6, IL-8, and TNF-α); assay: Suppression of inflammatory gene expression induced by UV exposure in NHEK cells; format: cell-based, human; conditions: 50 μg/ml, UVB 40 mJ, compared with positive control (UVB only), FIG. 3
Description: The anti-inflammation effects of the compositions were investigated by measuring the UVB-induced generation of pro-inflammatory cytokines (IL-1α, IL-1β, IL-6, IL-8, and TNF-α) in the epidermis.
The normal human epidermal keratinocytes (NHEK cell line) were incubated in the keratinocyte-SFM medium (serum-free medium) at 95% humidity in 5% carbon dioxide at 37° C. The cells were placed (3×10^4 cells/wall) into the 96-well plate and allowed to adhere 24 hours. The cells were treated with the composition 6, 16 or green tea extract in the concentration of 50 μg/ml. DMSO (dimethyl sulfoxide) was used as a solvent and the final concentration of DMSO was 0.1% (v/v). After incubation for 24 hours, the cells were was irradiated with UVB (40 mJ/cd). The cultured supernatants were collected 24 hour after UVB irradiation. The concentrations of pro-inflammatory cytokines (IL-1β, IL-6, IL-8, and TNF-α) were deteHnined from Human Inflammation Cytometric Bead Assay kit (Becton Deckinson, San Diego, USA). The concentration of IL-1α was measured using the enzyme immunoassay. The results are described in FIG. 2. The negative control indicates the cells which were neither irradiated nor treated with the compositions, and the positive control means the cells which were only irradiated with UVB without treatment of the compositions.

Hamster sebocyte = assay: Suppression of sebocyte proliferation ([3H] thymidine); format: cell-based; conditions: for % of untreated cell / cell number (×10^3 d.p.m/well): 12 days; for cell number (×10^3 d.p.m/well): control 2.90 ± 0.20
Description: Hamster sebocyte were established from sebaceous glands of auricles of the 5 week-old hamsters according to Sato's method. Sebocytes (2.35×10^4 cells/plate) were cultured in DMEM/F12 medium supplemented with 2% FBS and 2% human serum for 24 hours. The cells were treated with the composition 6 and 14 in different concentrations one time per 3 days for 12 days. The [^3H] thymidine (1 kBq/well) (Amersham Bioscience) was added 3 hours before the final treatment. The amount of [^3H] thymidine combined with DNA was measured by using liquid scintillation counter. The cell proliferation activity was determined as compared with negative control.

[6] = tested on: TG (triacyl glycerol) synthesis; assay: Inhibition of TG synthesis in hamster auricles; format: in vivo; conditions: for Relative TG concentration in the skin cell (%) / Relative TG concentration in the skin surface (%): hamster auricles, 200 μl of 10% solution topically once a day for 14 days, control group = 100
Description: The prevention and treatment effects of the compositions on the acne were assessed through the inhibition of TG (triacyl glycerol) synthesis and sebocyte proliferation in hamster model.
The inhibitory effects of the composition 6 and 14 on TG synthesis were assessed as compared with catechin (positive control group). 5 week-old male hamster was divided into three groups (negative control group, test group, positive control group) and housed 10 animals to a cage after the acclimatization for 2 weeks. Animal rooms were maintained at 25±1° C. and 55% of humidity with a 12-hr light/dark cycle. The animals were freely accessed to diet and water throughout the study. The auricles of hamster were topically treated once a day for 14 days with 200 μl of 10% of the composition 6, 14 or catechin. The solvent for topical application was composed of a mixture of ethanol and glycerol (95:5, v/v). The animals in negative control group were treated with the same volume of vehicle. The auricles were separated from the body and the sebum generated on the skin surface was extracted with acetone. The amount of TG in skin surface was calculated from the sebum extracts. Sebocyte were suspended into solution from the auricle tissues using sonicator, and then amount of intercellar TG was determined by automatic thin-layer chromatography using triolate as a standard. The relative TG concentrations of each sample were calculated from comparison with negative control.

[7] = sample concentration 10 (unit not given)
[8] = sample concentration 20 (unit not given)
[9] = sample concentration 40 (unit not given)

Compound | Inhibitory effect on melanin synthesis (%) [1] | LD50 (μM) NB1RGB cell [2] | LD50 (μM) NHEK (F) cell [3] | % Inhibition on histamine release [4] | Inhibition of Elastase (%) (elastase) | other results
O=C1O[C@H]([C@@H](O)CO)C(O)=C1O [ascorbic acid, reference compound] |  |  |  |  |  | inhibition at 50 µg/mL [1]: 65.3%
Oc1cc(O)cc(Oc2c(O)cc(O)c3c2Oc2c(O)cc(O)cc2O3)c1 [composition 1] | 84.3% | 110.4 µM | 56.4 µM | 60.4% | 87.4% | 
Oc1cc(O)cc(Oc2c(O)cc(O)c3c2Oc2c(O)cc(Oc4c(O)cc(Oc5c(O)cc(O)c6c5Oc5c(O)cc(O)cc5O6)cc4O)cc2O3)c1 [composition 2] | 82.0% | 150.3 µM | 48.9 µM | 70.3% | 86.4% | 
Oc1cc(O)cc(Oc2c(O)cc(O)c3c2Oc2c(O)cc4oc5c(Oc6cc(O)cc(O)c6)c(O)cc(O)c5c4c2O3)c1 [composition 4] | 82.3% |  |  | 80.3% | 85.4% | 
Oc1cc(O)cc(Oc2c(O)cc(O)c3c2Oc2c(O)cc(O)c(-c4c(O)cc(O)c5c4Oc4c(O)cc(O)c(Oc6cc(O)cc(O)c6)c4O5)c2O3)c1 [composition 5] | 83.5% |  | 100.4 µM | 77.4% | 90.4% | 
Oc1cc(O)cc(Oc2c(O)cc(O)c3c2Oc2c(cc(O)c(-c4c(O)cc5c(c4O)Oc4c(Oc6cc(O)cc(O)c6)c(O)cc(O)c4O5)c2O)O3)c1 [composition 6] | 89.8% | 97.3 µM | 105.4 µM | 75.9% | 89.9% | levels of pro-inflammatory cytokines [5]: significantly decrease levels of pro-inflammatory cytokines; sebocyte proliferation (Hamster sebocyte; Table 9, in words): significantly suppressed sebocyte proliferation; % of untreated cell (Hamster sebocyte; [7]): 78.4%; cell number (×10^3 d.p.m/well) (Hamster sebocyte; [7]): 2.26 ± 0.67 ×10^3 d.p.m/well; % of untreated cell (Hamster sebocyte; [8]): 30.2%; cell number (×10^3 d.p.m/well) (Hamster sebocyte; [8]): 0.87 ± 0.07 ×10^3 d.p.m/well; % of untreated cell (Hamster sebocyte; [9]): 10.4%; cell number (×10^3 d.p.m/well) (Hamster sebocyte; [9]): 0.30 ± 0.05 ×10^3 d.p.m/well; sebum production on skin surface and in the skin cell ([6]; compared with negative control): significantly decrease sebum production; Relative TG concentration in the skin cell (%) [6]: 54.9%; Relative TG concentration in the skin surface (%) [6]: 66.2%
Oc1cc(O)cc(Oc2c(O)cc(O)c3c2Oc2c(O)cc4oc5cc(O)cc(O)c5c4c2O3)c1 [composition 7] | 80.5% | 100.4 µM | 78.9 µM | 70.8% | 88.7% | 
Oc1cc(O)cc(Oc2cc(O)c3c(c2)Oc2c(O)cc(O)c(Oc4cc(O)cc(O)c4)c2O3)c1 [composition 8] | 87.6% | 104.8 µM | 93.2 µM | 62.9% | 87.7% | 
Oc1cc(O)cc(Oc2c(Oc3c(O)cc(O)cc3O)cc(O)c3c2Oc2c(O)cc(O)cc2O3)c1 [composition 9] | 84.3% | 114.3 µM | 57.2 µM | 72.1% | 82.7% | 
Oc1cc(O)cc(Oc2c(O)cc(O)c3c2Oc2c(O)cc(O)c(-c4c(O)cc(O)c5c4Oc4c(O)cc(Oc6c(O)cc(O)cc6O)c(Oc6cc(O)cc(O)c6)c4O5)c2O3)c1 [composition 10] | 92.1% |  | 48.2 µM | 83.2% | 88.1% | 
O=c1c(-c2ccccc2)coc2ccccc12 [isoflavone, reference compound] |  |  |  |  | 38.3% | inhibition at 50 µg/mL [1]: 64.3%
O=c1cc(CO)occ1O [kojic acid, reference compound] |  |  |  |  |  | inhibition at 50 µg/mL [1]: 60.3%
Oc1ccc(/C=C/c2cc(O)cc(O)c2)cc1 [rasveratrole, reference compound] | 40.9% |  |  |  | 48.3% | 
catechin [reference compound] | 50.4% |  |  |  | 50.4% | Relative TG concentration in the skin cell (%) [6]: 110.4%; Relative TG concentration in the skin surface (%) [6]: 108.2%
